Data reported in PubChem BioAssay (NCI).
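Tested at 5 concentrations; 48 h exposure; 96-well plates; endpoints linearly interpolated, else capped at highest concentration. GI50 marks 50% less growth. TGI is the concentration that stops growth completely.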

Assays:
Assay in all cases: growth of human tumour cells (NCI), 48 h
U251 CNS = test system: U251 CNS
HOP-62 NSCLC = test system: HOP-62 NSCLC
MOLT-4 leukemia = test system: MOLT-4 leukemia
A549 NSCLC = test system: A549 NSCLC
HCT-15 colon = test system: HCT-15 colon
SNB-75 CNS = test system: SNB-75 CNS
SF-295 CNS = test system: SF-295 CNS
DU-145 prostate = test system: DU-145 prostate
PC-3 prostate = test system: PC-3 prostate
HT29 colon = test system: HT29 colon
K-562 leukemia = test system: K-562 leukemia
RXF 393 renal = test system: RXF 393 renal
HS 578T breast = test system: HS 578T breast
TK-10 renal = test system: TK-10 renal
SK-MEL-28 melanoma = test system: SK-MEL-28 melanoma
A498 renal = test system: A498 renal
HCT-116 colon = test system: HCT-116 colon
SF-268 CNS = test system: SF-268 CNS
BT-549 breast = test system: BT-549 breast
M14 melanoma = test system: M14 melanoma
786-0 renal = test system: 786-0 renal
ACHN renal = test system: ACHN renal
EKVX NSCLC = test system: EKVX NSCLC
IGROV1 ovarian = test system: IGROV1 ovarian
SR leukemia = test system: SR leukemia

COc1ccc(CN2C(=O)C(Cl)=C(Nc3cccc(O)c3)C2=O)cc1
TGI (U251 CNS): 21.1 µM | GI50 (HOP-62 NSCLC): 8.61 µM | TGI (HOP-62 NSCLC): > 100 µM | GI50 (MOLT-4 leukemia): 0.501 µM | TGI (MOLT-4 leukemia): 10.5 µM | GI50 (A549 NSCLC): 3.15 µM | TGI (A549 NSCLC): 20.5 µM | GI50 (HCT-15 colon): 2.05 µM | TGI (HCT-15 colon): 21.4 µM | GI50 (SNB-75 CNS): 6.73 µM | TGI (SNB-75 CNS): > 100 µM | GI50 (SF-295 CNS): 2.75 µM | TGI (SF-295 CNS): 31.2 µM | GI50 (DU-145 prostate): 13.8 µM | TGI (DU-145 prostate): 33 µM | GI50 (PC-3 prostate): 4.39 µM | TGI (PC-3 prostate): 36.1 µM | GI50 (HT29 colon): 18 µM | TGI (HT29 colon): > 100 µM | GI50 (K-562 leukemia): 0.349 µM | TGI (K-562 leukemia): 9.13 µM | GI50 (RXF 393 renal): 2.16 µM | TGI (RXF 393 renal): 11.3 µM | GI50 (HS 578T breast): 9.62 µM | TGI (HS 578T breast): 51.7 µM | GI50 (TK-10 renal): 3.77 µM | TGI (TK-10 renal): 37 µM | GI50 (SK-MEL-28 melanoma): 13.3 µM | TGI (SK-MEL-28 melanoma): > 100 µM | GI50 (A498 renal): 14.2 µM | TGI (A498 renal): 35.7 µM | GI50 (HCT-116 colon): 1.14 µM | TGI (HCT-116 colon): 19.8 µM | GI50 (SF-268 CNS): 17.2 µM | TGI (SF-268 CNS): 45.8 µM | GI50 (BT-549 breast): 13.7 µM | TGI (BT-549 breast): 45.4 µM | GI50 (M14 melanoma): 5.63 µM | TGI (M14 melanoma): 75.7 µM | GI50 (786-0 renal): 4.23 µM | TGI (786-0 renal): > 100 µM | GI50 (ACHN renal): 10.9 µM | TGI (ACHN renal): 57.3 µM | GI50 (EKVX NSCLC): 21.5 µM | TGI (EKVX NSCLC): 56 µM | GI50 (IGROV1 ovarian): 0.591 µM | TGI (IGROV1 ovarian): 15.2 µM | GI50 (SR leukemia): 0.185 µM | TGI (SR leukemia): 0.465 µM
